In patent US20080051429A1, “USE OF 4-AMINO-PIPERIDINES FOR TREATING SLEEP DISORDERS” (priority 2006, published 2008):
Structures can show the parent of a compound that is named as a salt. Where two headings read alike, the source gives them in different places.

How the values were obtained:
5-HT2A receptor = biological target: T1, 5-HT2A receptor (Homo sapiens, UniProt P28223); test: R-SAT functional receptor assay; assay type: cell-based
T1 construct: expressed in transfected cells; host or cells: NIH3T3 cells, pSI expression vector

Male NSA mice = test: In vivo determination of behavioral effects (motor activity, MK-801 hyperactivity); details: p.o.; minimum effective dose vs vehicle control
Experimental: Male NSA mice (Harlan; San Deigo, Calif.) were used as subjects. Mice weighed 20-30 g. Animals were housed 8/cage in the One Cage system (One Cage; Lab Products, Inc., Seaford, Del.) with bedding (⅛ inch Bed “O” Cob; Harlan Teklad, Madison, Wis.) in a room with controlled temperature 22±3° C. and a 12 hour light:dark cycle (lights on 6 am). Water and standard rodent chow (Harlan Teklad) were continuously available in the home cage. For testing, plastic locomotor activity cages (20×20×30 cm; AccuScan Instruments, Columbus, Ohio) were equipped with photocell beams for monitoring horizontal activity. Data were collected using Versamax computer software (AccuScan Instruments). For determination of spontaneous activity, test compounds were administered alone (s.c. 10 min or p.o. 30 min before the session). For hyperactivity experiments, mice were injected with 0.3 mg/kg MK-8011.p. 15 min precession (the peak dose for producing hyperactivity in an inverted-U dose-effect curve as determined in pilot experiments) in combination with vehicle or test compound. Motor activity data were collected during a 15 min session in a lit room. Mice had no prior exposure to the motor cages. Each dose or dose combination was tested in a separate group of mice (n=8). Distance traveled (cm) was calculated and averaged across animals in a group. […]

5HT1A [1] = biological target: T2, 5HT1A (Rattus norvegicus, UniProt P19327); test: R-SAT selectivity profile; assay type: cell-based; details: antagonist
T2 construct: expressed in transfected cells
Experimental: (§1) The functional receptor assay, Receptor Selection and Amplification Technology (R-SAT), was used (with minor modifications from that previously described U.S. Pat. No. 5,707,798) to screen compounds for efficacy at the 5-HT2A receptor. Briefly, NIH3T3 cells were grown in 96 well tissue culture plates to 70-80% confluence. Cells were transfected for 12-16 hours with plasmid DNAs using superfect (Qiagen Inc.) as per manufacture's protocols. R-SAT's were generally performed with 50 ng/well of receptor and 20 ng/well of Beta-galactosidase plasmid DNA. All receptor and G-protein constructs used were in the pSI mammalian expression vector (Promega Inc) as described in U.S. Pat. No. 5,707,798. The 5HT2A receptor gene was amplified by nested PCR from brain cDNA using the oligodeoxynucleotides based on the published sequence (see Saltzman et. al. Biochem. Biophys. Res. Comm. 181:1469-78 (1991)). Large-scale transfections, cells were transfected for 12-16 hours, then trypsinized and frozen in DMSO. Frozen cells were later thawed, plated at 10,000-40,000 cells per well of a 96 well plate that contained drug. With both methods, cells were then grown in a humidified atmosphere with 5% ambient CO2 for five days. Media was then removed from the plates and marker gene activity was measured by the addition of the beta-galactosidase substrate ONPG (in PBS with 5% NP-40). The resulting colorimetric reaction was measured in a spectrophotometric plate reader (Titertek Inc.)at […]. All data were analyzed using the computer program XLFit (IDBSm). Efficacy is the percent maximal repression compared to repression by a control compound (ritanserin in the case of 5HT2A). pIC50 is the negative of the log(IC50), where IC50 is the calculated concentration in Molar that produces 50% maximal repression.
(§2) R-SAT assays (as described in Example 42) were carried out with cells transfected with receptors (listed below) to determine the receptor selectivity profile for compound 26HCH16D. 5HT2A inverse agonist data (IC50 nM; % efficacy) were derived from detailed dose response curves (7 points in triplicate).

alpha1a/D = biological target: T3, alpha1a/D (Rattus norvegicus, UniProt P23944); test: R-SAT selectivity profile; assay type: cell-based
T3 construct: expressed in transfected cells
Experimental: as §1, §2

alpha1c/A = biological target: T4, alpha1c/A (Homo sapiens, UniProt P35348); test: R-SAT selectivity profile; assay type: cell-based
T4 construct: expressed in transfected cells
T4 sequence (P35348 1-466): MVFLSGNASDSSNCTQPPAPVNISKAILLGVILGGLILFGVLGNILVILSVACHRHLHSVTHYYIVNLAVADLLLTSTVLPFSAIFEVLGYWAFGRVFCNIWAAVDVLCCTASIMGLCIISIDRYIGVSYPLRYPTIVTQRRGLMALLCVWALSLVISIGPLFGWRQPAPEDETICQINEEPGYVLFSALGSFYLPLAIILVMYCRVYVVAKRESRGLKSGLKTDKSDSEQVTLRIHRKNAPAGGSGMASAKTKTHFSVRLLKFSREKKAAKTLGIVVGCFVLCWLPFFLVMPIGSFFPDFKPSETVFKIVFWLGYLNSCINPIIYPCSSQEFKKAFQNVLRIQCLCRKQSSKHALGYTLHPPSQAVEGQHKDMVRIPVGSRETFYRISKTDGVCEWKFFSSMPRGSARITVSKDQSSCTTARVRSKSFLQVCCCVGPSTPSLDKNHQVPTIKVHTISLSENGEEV
Experimental: as §1, §2

alpha1b/B = biological target: T5, alpha1b/B (Mesocricetus auratus, UniProt P18841); test: R-SAT selectivity profile; assay type: cell-based, hamster
T5 construct: expressed in transfected cells
Experimental: as §1, with “Frozen cells were later thawed, plated at 10,000-40,000 cells per well of a 96 well plate that contained drug. With both methods, cells were then grown in a humidified atmosphere with 5% ambient CO2 for five days.” left out, “Efficacy is the percent maximal repression compared to repression by a control compound (ritanserin in the case of 5HT2A). pIC50 is the negative of the log(IC50), where IC50 is the calculated concentration in Molar that produces 50% maximal repression.” left out

5HT1A [2] = biological target: T6, 5HT1A (Homo sapiens, UniProt P08908); test: R-SAT selectivity profile; assay type: cell-based; set-up: expressed in transfected cells; details: agonist
T6 sequence (P08908 1-422): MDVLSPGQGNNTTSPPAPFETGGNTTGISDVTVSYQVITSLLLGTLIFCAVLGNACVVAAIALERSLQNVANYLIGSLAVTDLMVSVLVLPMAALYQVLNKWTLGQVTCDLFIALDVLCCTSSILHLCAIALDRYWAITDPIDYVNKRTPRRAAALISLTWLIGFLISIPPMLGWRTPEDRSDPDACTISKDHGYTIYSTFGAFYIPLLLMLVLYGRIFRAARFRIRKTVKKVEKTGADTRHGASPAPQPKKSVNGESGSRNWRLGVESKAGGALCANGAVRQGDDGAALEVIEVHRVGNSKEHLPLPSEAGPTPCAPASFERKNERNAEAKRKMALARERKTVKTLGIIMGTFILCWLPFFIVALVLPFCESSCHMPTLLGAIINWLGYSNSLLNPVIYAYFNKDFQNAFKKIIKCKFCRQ
Experimental: as §1, §2

5HT1E = 5HT1E (Homo sapiens, UniProt P28566); test: R-SAT selectivity profile; assay type: cell-based; set-up: expressed in transfected cells; details: agonist
Experimental: as §1, §2

5HT2B = 5HT2B (Homo sapiens, UniProt P41595); test: R-SAT selectivity profile; assay type: cell-based; set-up: expressed in transfected cells
Experimental: as §1, §2

5HT2C = biological target: T7, 5HT2C (Homo sapiens, UniProt P28335); test: R-SAT selectivity profile; assay type: cell-based; set-up: expressed in transfected cells
T7 sequence (P28335 33-458): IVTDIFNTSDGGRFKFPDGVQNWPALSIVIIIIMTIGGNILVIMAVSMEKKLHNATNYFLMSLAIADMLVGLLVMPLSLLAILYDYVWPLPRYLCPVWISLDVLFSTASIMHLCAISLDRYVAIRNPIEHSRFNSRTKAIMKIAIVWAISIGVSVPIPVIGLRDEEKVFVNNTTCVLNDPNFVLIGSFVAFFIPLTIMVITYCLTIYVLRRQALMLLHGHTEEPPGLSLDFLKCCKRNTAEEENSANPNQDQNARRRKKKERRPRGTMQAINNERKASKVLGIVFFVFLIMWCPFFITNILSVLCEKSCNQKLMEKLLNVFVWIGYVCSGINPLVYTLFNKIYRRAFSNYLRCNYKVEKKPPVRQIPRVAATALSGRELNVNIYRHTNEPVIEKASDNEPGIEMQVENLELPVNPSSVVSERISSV
Experimental: as §1, §2

D2 = D2 (Homo sapiens, UniProt P14416); test: R-SAT selectivity profile; assay type: cell-based; set-up: expressed in transfected cells
Experimental: as §1, §2

H1 = H1 (Homo sapiens, UniProt P35367); test: R-SAT selectivity profile; assay type: cell-based; set-up: expressed in transfected cells
Experimental: as §1, §2

T1 sequence (P28223 whole entry): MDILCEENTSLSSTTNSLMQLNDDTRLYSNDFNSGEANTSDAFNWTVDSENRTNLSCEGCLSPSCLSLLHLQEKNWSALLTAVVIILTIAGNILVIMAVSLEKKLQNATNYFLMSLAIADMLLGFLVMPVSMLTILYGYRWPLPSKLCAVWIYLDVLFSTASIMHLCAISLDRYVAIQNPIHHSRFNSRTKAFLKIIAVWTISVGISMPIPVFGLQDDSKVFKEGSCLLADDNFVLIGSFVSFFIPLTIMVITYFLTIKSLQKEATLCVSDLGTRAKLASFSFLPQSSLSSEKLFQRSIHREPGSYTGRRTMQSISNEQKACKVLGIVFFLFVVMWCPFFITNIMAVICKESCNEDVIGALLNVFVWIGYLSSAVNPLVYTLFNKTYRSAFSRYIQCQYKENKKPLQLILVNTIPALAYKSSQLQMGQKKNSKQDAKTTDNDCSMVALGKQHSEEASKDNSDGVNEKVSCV
D2, sequence (P14416 whole entry): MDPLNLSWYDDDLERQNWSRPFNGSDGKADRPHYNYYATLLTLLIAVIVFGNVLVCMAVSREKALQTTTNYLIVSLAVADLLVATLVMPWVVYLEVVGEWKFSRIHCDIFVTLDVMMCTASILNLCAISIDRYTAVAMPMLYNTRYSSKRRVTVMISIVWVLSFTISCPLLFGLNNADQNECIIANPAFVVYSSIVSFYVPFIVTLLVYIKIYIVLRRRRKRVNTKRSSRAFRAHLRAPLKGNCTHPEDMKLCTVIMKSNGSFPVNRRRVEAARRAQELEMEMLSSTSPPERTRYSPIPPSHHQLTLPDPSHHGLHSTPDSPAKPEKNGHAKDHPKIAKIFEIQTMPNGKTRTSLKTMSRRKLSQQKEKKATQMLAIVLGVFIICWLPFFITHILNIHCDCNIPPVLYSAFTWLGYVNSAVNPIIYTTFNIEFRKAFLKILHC
H1, sequence (P35367 whole entry): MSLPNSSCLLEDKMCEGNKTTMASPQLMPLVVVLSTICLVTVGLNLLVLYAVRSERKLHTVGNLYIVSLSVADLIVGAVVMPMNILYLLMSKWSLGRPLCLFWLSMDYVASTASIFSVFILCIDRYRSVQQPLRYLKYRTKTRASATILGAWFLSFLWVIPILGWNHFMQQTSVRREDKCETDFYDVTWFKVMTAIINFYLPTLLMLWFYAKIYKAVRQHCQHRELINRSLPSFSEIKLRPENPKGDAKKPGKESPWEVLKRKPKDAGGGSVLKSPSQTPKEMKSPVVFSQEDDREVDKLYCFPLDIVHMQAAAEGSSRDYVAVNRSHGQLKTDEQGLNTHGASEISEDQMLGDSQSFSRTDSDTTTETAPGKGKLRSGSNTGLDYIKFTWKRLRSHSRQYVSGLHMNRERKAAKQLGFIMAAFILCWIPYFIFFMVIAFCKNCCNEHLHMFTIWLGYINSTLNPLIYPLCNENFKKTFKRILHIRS
5HT2B, sequence (P41595 whole entry): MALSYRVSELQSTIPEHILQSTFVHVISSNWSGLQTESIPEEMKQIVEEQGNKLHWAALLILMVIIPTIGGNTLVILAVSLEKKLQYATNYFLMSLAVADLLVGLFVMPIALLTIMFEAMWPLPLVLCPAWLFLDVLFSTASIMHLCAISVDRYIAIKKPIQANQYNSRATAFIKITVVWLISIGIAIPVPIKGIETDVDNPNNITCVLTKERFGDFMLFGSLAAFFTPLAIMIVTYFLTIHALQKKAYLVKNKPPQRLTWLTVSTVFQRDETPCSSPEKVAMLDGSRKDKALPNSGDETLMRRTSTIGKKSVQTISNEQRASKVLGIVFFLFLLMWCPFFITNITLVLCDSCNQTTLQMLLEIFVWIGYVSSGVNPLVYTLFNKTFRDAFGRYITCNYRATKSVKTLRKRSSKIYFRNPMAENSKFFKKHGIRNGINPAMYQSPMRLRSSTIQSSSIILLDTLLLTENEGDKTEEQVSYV
T3 sequence (P23944 whole entry): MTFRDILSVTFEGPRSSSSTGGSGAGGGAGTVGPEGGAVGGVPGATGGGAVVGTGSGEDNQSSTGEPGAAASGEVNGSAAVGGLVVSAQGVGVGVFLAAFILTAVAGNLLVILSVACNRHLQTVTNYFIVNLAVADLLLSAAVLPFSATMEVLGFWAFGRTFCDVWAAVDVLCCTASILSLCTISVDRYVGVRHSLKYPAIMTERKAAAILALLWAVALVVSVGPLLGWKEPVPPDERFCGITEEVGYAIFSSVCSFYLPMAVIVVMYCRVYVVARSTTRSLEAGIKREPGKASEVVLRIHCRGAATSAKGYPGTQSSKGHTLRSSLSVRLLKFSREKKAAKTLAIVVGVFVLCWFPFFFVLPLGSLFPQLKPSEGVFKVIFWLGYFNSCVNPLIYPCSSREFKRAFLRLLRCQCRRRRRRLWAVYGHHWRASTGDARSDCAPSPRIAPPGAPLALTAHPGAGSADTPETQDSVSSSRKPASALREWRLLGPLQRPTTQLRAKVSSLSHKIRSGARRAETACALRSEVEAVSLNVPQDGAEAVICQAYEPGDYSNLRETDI
T5 sequence (P18841 whole entry): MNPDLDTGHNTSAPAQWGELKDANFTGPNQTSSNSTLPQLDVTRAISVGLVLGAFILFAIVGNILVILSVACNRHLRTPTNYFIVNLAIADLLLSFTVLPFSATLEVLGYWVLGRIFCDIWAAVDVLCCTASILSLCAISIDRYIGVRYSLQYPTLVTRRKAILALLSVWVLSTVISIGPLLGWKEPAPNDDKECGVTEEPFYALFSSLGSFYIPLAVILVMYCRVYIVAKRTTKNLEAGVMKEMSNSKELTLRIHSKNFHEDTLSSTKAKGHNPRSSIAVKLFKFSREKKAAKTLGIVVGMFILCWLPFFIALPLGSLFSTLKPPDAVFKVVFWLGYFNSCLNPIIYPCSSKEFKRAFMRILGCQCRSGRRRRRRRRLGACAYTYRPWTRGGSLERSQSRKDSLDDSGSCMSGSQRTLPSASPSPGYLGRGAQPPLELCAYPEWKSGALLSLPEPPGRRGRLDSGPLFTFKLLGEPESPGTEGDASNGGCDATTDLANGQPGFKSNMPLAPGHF
5HT1E, sequence (P28566 whole entry): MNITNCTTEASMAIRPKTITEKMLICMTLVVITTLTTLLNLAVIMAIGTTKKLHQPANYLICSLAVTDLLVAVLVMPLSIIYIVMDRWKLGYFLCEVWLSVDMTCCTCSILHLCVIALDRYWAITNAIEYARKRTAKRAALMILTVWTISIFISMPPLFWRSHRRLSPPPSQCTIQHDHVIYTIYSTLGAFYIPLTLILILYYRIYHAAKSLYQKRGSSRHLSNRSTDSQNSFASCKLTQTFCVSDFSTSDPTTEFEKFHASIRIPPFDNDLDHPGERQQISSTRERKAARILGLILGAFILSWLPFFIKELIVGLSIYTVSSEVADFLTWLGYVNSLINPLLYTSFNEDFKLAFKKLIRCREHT
T2 sequence (P19327 whole entry): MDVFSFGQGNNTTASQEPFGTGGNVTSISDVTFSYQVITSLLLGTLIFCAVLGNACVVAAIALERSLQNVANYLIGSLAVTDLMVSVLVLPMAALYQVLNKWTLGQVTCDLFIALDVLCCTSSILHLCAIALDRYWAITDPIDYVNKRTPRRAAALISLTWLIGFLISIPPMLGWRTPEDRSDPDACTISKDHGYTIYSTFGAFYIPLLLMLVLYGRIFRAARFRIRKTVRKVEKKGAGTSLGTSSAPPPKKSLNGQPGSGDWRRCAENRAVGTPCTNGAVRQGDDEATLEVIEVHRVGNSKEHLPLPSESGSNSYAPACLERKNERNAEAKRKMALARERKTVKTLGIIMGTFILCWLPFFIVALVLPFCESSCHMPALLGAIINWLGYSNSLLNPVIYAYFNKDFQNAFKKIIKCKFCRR

## CC(C)COc1ccc(CC(=O)N(Cc2ccc(F)cc2)C2CCN(CCCN3C(=O)OC[C@@H]3C(C)C)CC2)cc1.O=C(O)C(=O)O [Example 117NLS01, N-(4-Fluorobenzyl)-2-(4-isobutoxyphenyl)-N-{1-[3-(4-(S)-isopropyl-2-oxo-oxazolidin-3-yl)propyl]piperidin-4-yl}acetamide, oxalate]
5-HT2A receptor; 120 h, read-out: 5HT2A % INH
  Emax: 104%
5-HT2A receptor; Table 5, read-out: 5HT2A pIC50 (converted)
  IC50: 0.2 nM
Male NSA mice
  MED in vivo po: 1 mg/kg

## Cc1ccc(CN(C(=O)NCc2ccccc2)C2CCN(Cc3ccccc3)CC2)cc1 [Example 26HCH16D, N-((4-Methylphenyl)methyl)-N-(1-(phenylmethyl)piperidin-4-yl)-N′-phenylmethylcarbamide hydrochloride]
5-HT2A receptor; IC50, Inverse Agonist, 7 points in triplicate
  IC50: 0.9 nM
5-HT2A receptor; in words
  selectivity as 5-HT2A inverse agonist: highly selective
5-HT2A receptor; read-out: % efficacy
  Emax: 79%
5HT1A [1]
  Efficacy: nr (nr=activity less than 30% at all doses tested (3, 30, 300, 3000 nM), therefore EC50/IC50 greater than 3000 nM)
alpha1a/D; agonist
  Efficacy: nr (nr=activity less than 30% at all doses tested (3, 30, 300, 3000 nM), therefore EC50/IC50 greater than 3000 nM)
alpha1a/D; antagonist
  Efficacy: nr (nr=activity less than 30% at all doses tested (3, 30, 300, 3000 nM), therefore EC50/IC50 greater than 3000 nM)
alpha1c/A; Antagonist, 4 dose profiling
  initial concentration at which at least 30% efficacy observed: 3000 nM
alpha1c/A; agonist
  Efficacy: nr (nr=activity less than 30% at all doses tested (3, 30, 300, 3000 nM), therefore EC50/IC50 greater than 3000 nM)
alpha1c/A; antagonist
  actual efficacy figure: 46%
alpha1b/B; agonist
  Efficacy: nr (nr=activity less than 30% at all doses tested (3, 30, 300, 3000 nM), therefore EC50/IC50 greater than 3000 nM)
alpha1b/B; antagonist
  Efficacy: nr (nr=activity less than 30% at all doses tested (3, 30, 300, 3000 nM), therefore EC50/IC50 greater than 3000 nM)
5HT1A [2]
  Efficacy: nr (nr=activity less than 30% at all doses tested (3, 30, 300, 3000 nM), therefore EC50/IC50 greater than 3000 nM)
5HT1E
  Efficacy: nr (nr=activity less than 30% at all doses tested (3, 30, 300, 3000 nM), therefore EC50/IC50 greater than 3000 nM)
5HT2B; Antagonist, 4 dose profiling
  initial concentration at which at least 30% efficacy observed: 3000 nM
5HT2B; antagonist
  actual efficacy figure: 60%
5HT2C; Inverse Agonist, 4 dose profiling
  initial concentration at which at least 30% efficacy observed: 3000 nM
5HT2C; inverse agonist
  actual efficacy figure: 79%
D2
  actual efficacy figure: 73%
D2; Antagonist, 4 dose profiling
  initial concentration at which at least 30% efficacy observed: 3000 nM
D2; agonist
  Efficacy: nr (nr=activity less than 30% at all doses tested (3, 30, 300, 3000 nM), therefore EC50/IC50 greater than 3000 nM)
H1; Antagonist, 4 dose profiling
  initial concentration at which at least 30% efficacy observed: 3000 nM
H1; agonist
  Efficacy: nr (nr=activity less than 30% at all doses tested (3, 30, 300, 3000 nM), therefore EC50/IC50 greater than 3000 nM)
H1; antagonist
  actual efficacy figure: 30%
